Article PMC3984256, “A PCNA-Derived Cell Permeable Peptide Selectively Inhibits Neuroblastoma Cell Growth” (PLoS ONE, 2014)
Entries after “also recorded” stand apart in the source; their conditions may differ. Where a SMILES comes first, the peptide text is derived from it. [ ]: non-standard residue; d: D form.

Legend:
[1] = system: EJ-mediated DSB repair, U2OS-derived EJ5-GFP cells; assay: DSB repair reporter assay, EJ (EJ5-GFP); assay type: cell-based; conditions: 30 µM, GFP-positive cells 3 d after I-SceI transfection, normalized to R9-srbPep, triplicates
Description: The plasmid pCBASce expresses the rare cutting I-SceI meganuclease. The U2OS-derived cell lines, DR-GFP, EJ5-GFP, and SA-GFP contain a stably transfected reporter gene for DSB repair mediated by HR, end joining (EJ), and single-strand annealing (SSA), respectively. These cell lines were cultured in DMEM medium with 10% FBS at 37°C in the presence of 5% CO2.
DR-GFP, EJ5-GFP, and SA-GFP cell lines were seeded at 2.5×10^4 cells/cm^2 in a 12-well plate. Once attached overnight, cells were transfected with 1.2 µg of the pCBASce I-SceI expression plasmid mixed with 3.6 µl of Lipofectamine 2000 (Invitrogen) in 200 µl of Optimem media (Invitrogen). After incubation for 3 h, the media containing transfection complexes was aspirated and replaced with fresh media containing 30 µM of the peptides. The HR, EJ, and SSA-mediated DSB repair, indicated by the restoration of a functional GFP gene in the respective cell lines, were quantified by measuring the relative abundance of GFP-positive cells by flow cytometry 3 d after transfection.

[2] = system: SV40 T-antigen-dependent DNA replication, nuclear extracts from SK-N-BE(2)c cells; assay: SV40 T-antigen-dependent DNA replication assay in vitro; assay type: biochemical; conditions: nuclear extracts incubated with peptide 20 min; 32P dCTP incorporation, normalized to PBS, triplicates
Description: The assay was performed essentially as described, except that nuclear extracts from SK-N-BE(2)c cells were used in the assay.
Figure 3 Inhibition of DNA replication and induction of S-phase arrest and apoptosis by R9-caPep. a) SK-N-BE(2)c cells were pulsed in 10 µM of BrdU for 30 min after being pre-treated with R9-caPep or R9-srbPep for 7.5 h. The relative abundances of BrdU-positive cells in triplicates were averaged and graphed plus/minus standard deviations. b) Nuclear extracts from SK-N-BE(2)c cells were incubated with the indicated concentrations of R9-caPep (grey bars) or R9-srbPep (black bars) for 20 min. SV40 T-antigen was then added to the nuclear extracts along with premixed reaction buffer containing ^32P dCTP. […] The polymerized radioactivity was measured by a scintillation counter. The T-antigen-dependent incorporation of ^32P dCTP was calculated by subtracting T-antigen-independent radioactivity from the total radioactivity and was normalized to the T-antigen-dependent radioactivity in PBS-treated samples. Triplicates of normalized T-antigen-dependent radioactivity for each treatment condition were averaged and graphed plus/minus standard deviations. c) SK-N-BE(2)c and non-malignant 7SM0032 cells were fixed and stained with propidium iodide (PI) after being treated with the indicated concentrations of R9-caPeptide for 48 h. […] Cells were fixed and analyzed by a TUNEL assay. […]

[3] = system: SK-N-BE(2)c cells; assay: Clonogenic assay; assay type: cell-based, human; conditions: 3 dishes averaged
Description: Three hundred fifty SK-N-BE(2)c cells were seeded onto a 60-mm tissue culture dish. Once attached overnight, cells were treated with or without cisplatin for 2 h. Cells were washed twice with growth medium and were cultured in fresh medium with or without R9-caPep for 3 weeks to allow colony formation. The medium was changed every 3 d. The colonies formed under each treatment conditions were counted after being stained with 0.5% crystal violet.

Structure (SMILES): CC[C@H](C)[C@H](NC(=O)CNC(=O)[C@H](CC(C)C)NC(=O)[C@H](CS)NC(=O)[C@H](CS)NC(=O)[C@@H](CCCNC(=N)N)NC(=O)[C@@H](CCCNC(=N)N)NC(=O)[C@@H](CCCNC(=N)N)NC(=O)[C@@H](CCCNC(=N)N)NC(=O)[C@@H](CCCNC(=N)N)NC(=O)[C@@H](CCCNC(=N)N)NC(=O)[C@@H](CCCNC(=N)N)NC(=O)[C@@H](CCCNC(=N)N)NC(=O)[C@H](N)CCCNC(=N)N)C(=O)N1CCC[C@H]1C(=O)N[C@@H](CCC(=O)O)C(=O)N[C@@H](CCC(N)=O)C(=O)N[C@@H](CCC(=O)O)C(=O)N[C@@H](Cc1ccc(O)cc1)C(=O)O [R9-caPep] (H-[dR][dR][dR][dR][dR][dR][dR][dR][dR]CCLGIPEQEY-OH; N-terminus and C-terminus assumed)
- EJ-mediated DNA repair [1]: only small effects on EJ or SSA; also recorded: little effect on the EJ pathway
- SV40 T-antigen-dependent DNA replication [2]: inhibited SV40 T-antigen-dependent DNA replication in vitro
- reduction of number of colonies, sequential cisplatin then R9-caPep ([3]; 1 µM cisplatin 2 h, then 20 µM R9-caPep 3 weeks): about 80%
- reduction of number of colonies, single agent ([3]; R9-caPep alone 20 µM 3 weeks, or cisplatin alone 1 µM 2 h): less than 30%
